Laboratory results taken from ChEMBL document CHEMBL3045401, “(Naphthalen-1-yloxy)-acetic acid benzylidene/(1-phenyl-ethylidene)-hydrazide derivatives: synthesis, antimicrobial evaluation, and QSAR studies” (Med Chem Res, 2012).
Values after ≈ are worked out from the molar mass of the structure shown.

What was measured:
[1] = Cytotoxicity against Homo sapiens (human) MT4 cells after 4 days by MTT assay; type: cell-based
[2] = test system: Human alphaherpesvirus 3; assay: Antiviral activity against thymidine kinase-positive Human herpesvirus 3 infected in HEL cells assessed as inhibition of viral plaque formation; type: functional, organism-based; settings: Human alphaherpesvirus 3, HEL
[3] = test system: Human betaherpesvirus 5; assay: Antiviral activity against Human herpesvirus 5 Davis infected human HEL cells assessed as reduction in the virus plaque formation; type: functional, organism-based; settings: Human betaherpesvirus 5, Davis
[4] = test system: Aspergillus niger; assay: Antimicrobial activity against Aspergillus niger after 7 days by serial dilution method; type: functional
[5] = test system: Human betaherpesvirus 5; assay: Antiviral activity against Human herpesvirus 5 strain AD169 infected human HEL cells assessed as reduction in the virus plaque formation; type: functional, organism-based; settings: Human betaherpesvirus 5, AD169, HEL
[6] = Cytotoxicity against HEL assessed as minimum concentration required to cause morphological changes; type: cell-based; settings: human, HEL cells
[7] = test system: Escherichia coli; assay: Antimicrobial activity against Escherichia coli after 24 hr by serial dilution method; type: functional
[8] = test system: Human immunodeficiency virus 1; assay: Antiviral activity against Human immunodeficiency virus 1 IIIB infected human MT4 cells assessed as inhibition of virus-induced cytopathic effect after 4 days by MTT assay; type: functional, organism-based; settings: MT4, 96 h
[9] = Cytotoxicity against HEL; type: cell-based; settings: human, HEL cells
[10] = test system: Staphylococcus aureus; assay: Antimicrobial activity against Staphylococcus aureus after 24 hr by serial dilution method; type: functional
[11] = Octanol-water partition coefficient, log P of the compound; type: physicochemical
[12] = test system: Human alphaherpesvirus 3; assay: Antiviral activity against thymidine kinase-deficient Human herpesvirus 3 infected in HEL cells assessed as inhibition of viral plaque formation; type: functional, organism-based; settings: Human alphaherpesvirus 3, HEL
[13] = test system: Candida albicans; assay: Antimicrobial activity against Candida albicans after 2 days by serial dilution method; type: functional
[14] = test system: Human immunodeficiency virus 2; assay: Antiviral activity against Human immunodeficiency virus type 2 (ISOLATE ROD) infected human MT4 cells assessed as inhibition of virus-induced cytopathic effect after 4 days by MTT assay; type: functional, organism-based; settings: Human immunodeficiency virus 2, ISOLATE ROD, MT4, 96 h
[15] = test system: Bacillus subtilis; assay: Antimicrobial activity against Bacillus subtilis after 24 hr by serial dilution method; type: functional

| Compound | CC50 at 96 h [1] [µg/mL] | EC50 [2] [µg/mL] | EC50 [3] [µg/mL] | -logMIC [4] | EC50 [5] [µg/mL] | MCC [6] [µg/mL] | -logMIC [7] | EC50 [8] [µg/mL] | CC50 [9] [µg/mL] | -logMIC [10] | logP [11] | EC50 [12] [µg/mL] | -logMIC [13] | EC50 [14] [µg/mL] | -logMIC [15] |
| --- | --- | --- | --- | --- | --- | --- | --- | --- | --- | --- | --- | --- | --- | --- | --- |
| C/C(=N\NC(=O)COc1cccc2ccccc12)c1ccc(O)cc1 | 68.8 (≈ 206 µM) | > 4 | > 4 | 1.43 | > 4 | 20 | 1.43 | > 68.8 | 11.1 (≈ 33.2 µM) | 1.13 | 4.44 | > 0.8 | 1.43 | > 68.8 | 1.13 |
| O=C(COc1cccc2ccccc12)N/N=C/c1ccc([N+](=O)[O-])cc1 | 87.8 (≈ 251 µM) | > 4 | > 4 | 0.54 | > 4 | 20 | 0.84 | > 87.8 | 14.2 (≈ 40.6 µM) | 0.84 | 3.97 | > 4 | 1.45 | > 87.8 | 1.14 |
| O=C(COc1cccc2ccccc12)N/N=C/c1ccccc1Cl | 56.2 (≈ 166 µM) | > 20 | > 20 | 0.83 | > 20 | 100 | 0.83 | > 56.2 | 62.7 (≈ 185 µM) | 1.13 | 4.54 | > 20 | 0.83 | > 56.2 | 0.83 |
| COc1ccc(/C=N/NC(=O)COc2cccc3ccccc23)cc1OC | 14.7 (≈ 40.2 µM) | > 4 | > 20 | 1.46 | > 4 | ≥ 20 | 1.46 | > 14.6 | 52.6 (≈ 144 µM) | 1.46 | 3.51 | > 20 | 1.46 | > 14.6 | 1.16 |
| O=C(COc1cccc2ccccc12)N/N=C/c1ccccc1Br | 11.4 (≈ 29.8 µM) | > 4 | > 20 | 0.88 | > 4 | ≥ 20 | 0.88 | > 11.4 | 100 (≈ 261 µM) | 1.19 | 4.81 | > 4 | 0.88 | > 11.4 | 0.88 |
| O=C(COc1cccc2ccccc12)N/N=C/c1cccc(Cl)c1 | 89.9 (≈ 265 µM) | > 100 | > 20 | 0.53 | > 20 | 100 | 0.53 | > 89.9 | 58.6 (≈ 173 µM) | 0.83 | 4.54 | > 100 | 0.53 | > 89.9 | 0.53 |
| C/C(=N\NC(=O)COc1cccc2ccccc12)c1ccc(C#N)cc1Br | 12.1 (≈ 28.7 µM) | > 4 | > 4 | 1.53 | > 4 | 20 | 1.53 | > 12.1 | 12.7 (≈ 30.1 µM) | 1.23 | 3.61 | > 4 | 2.13 | > 12.1 | 1.23 |
| CSc1ccc(/C=N/NC(=O)COc2cccc3ccccc23)cc1 | 68.3 (≈ 195 µM) | > 20 | > 20 | 0.54 | > 20 | ≥ 100 | 0.85 | > 68.3 | > 100 | 0.85 | 4.11 | > 20 | 1.45 | > 68.3 | 0.85 |
| O=C(COc1cccc2ccccc12)N/N=C/c1c[nH]c2ccccc12 | 51.5 (≈ 150 µM) | > 20 | > 20 | 0.84 | > 20 | 100 | 0.84 | > 51.5 | > 100 | 0.84 | 3.79 | > 20 | 0.84 | > 51.5 | 1.14 |
| C/C(=N\NC(=O)COc1cccc2ccccc12)c1ccc([N+](=O)[O-])cc1 | 89.3 (≈ 246 µM) | > 20 | > 20 | 0.86 | > 20 | 100 | 1.46 | > 89.3 | > 100 | 1.16 | 3.37 | > 20 | 1.46 | > 89.3 | 1.16 |
| COc1ccc(OC)c(/C=N/NC(=O)COc2cccc3ccccc23)c1 | 19.2 (≈ 52.8 µM) | > 4 | > 20 | 1.46 | > 4 | ≥ 20 | 1.46 | > 19.2 | 56.9 (≈ 156 µM) | 1.16 | 3.51 | > 20 | 1.46 | > 19.2 | 1.16 |
| O=C(COc1cccc2ccccc12)N/N=C/c1ccc(Br)cc1 | 106 (≈ 278 µM) | > 100 | > 100 | 0.58 | > 100 | > 100 | 0.58 | > 106 | 100 (≈ 261 µM) | 0.58 | 4.81 | > 100 | 0.58 | > 106 | 0.58 |
| O=C(COc1cccc2ccccc12)N/N=C/c1ccc(F)cc1 | 65 (≈ 202 µM) | > 20 | > 20 | 0.81 | > 20 | 100 | 1.41 | > 65 | 71.6 (≈ 222 µM) | 1.41 | 4.16 | > 20 | 0.81 | > 65 | 1.11 |
| COc1cc(/C=N/NC(=O)COc2cccc3ccccc23)cc(OC)c1OC | 13.4 (≈ 34 µM) | 12.5 (≈ 31.7 µM) | > 20 | 1.5 | > 4 | ≥ 20 | 1.5 | > 13.4 | 47.9 (≈ 121 µM) | 1.8 | 3.26 | 17.4 (≈ 44.1 µM) | 1.5 | > 13.4 | 1.5 |
